Literature values as cited in paper PMC9088311, “Cyclic Thiosulfonates for Thiol-Mediated Uptake: Cascade Exchangers, Transporters, Inhibitors” (JACS Au, 2022).

Tested on: lentivirus with D614G SC2 spike protein, A549 cells overexpressing ACE2 and TMPRSS2
Settings: 50 μM; cited from earlier work

For `O=S1(=O)C[C@H](O)[C@H](O)CS1` (stereo in doubt) [Compound 3, (4S,5R)-4,5-dihydroxy-1,2-dithiane-1,1-dioxide], the “inhibition of luciferase expression, thus SC2 lentivector entry” value is listed as “≈ 60%”.
